Assay: Diffusion of a fluorescent probe in swollen gelatin gel by FRAP
Type: physicochemical
Conditions: coating thickness 60 μm, diffusion coefficient 9×10−12 m2s−1
Text: To assess the stability of DTPA[Gd(III)] in the gelatin coating, the diffusion of a fluorescence probe in gelatin was studied by the technique of fluorescence recovery after photobleaching (FRAP). The instrument and data analysis scheme are described in Kim, S. H. and Yu, H., J. Phys. Chem. 1992, 96, 4034, which is hereby fully incorporated by reference. Fluorescein was used as the fluorescence probe due, in part, to its molecular size being roughly the same as that of DTPA[Gd(III)]. The focus of the study was to examine the possible retardation effects of gelatin concentration and cross-link density on the diffusion, which was determined at room temperature, i.e., below the gel point of gelatin. The diffusion of fluorescein probe slows down with the increase of gelatin concentration. The diffusion coefficient decreases from 1.5×10−10 to 9×10−12 m2s−1 when the concentration of gelatin increases from 9% to 40%. […] Accordingly, the probe diffusion is more likely controlled by the concentration of gelatin rather than the cross-link density. On the other hand, the cross-link density may determine the swelling ratio of gelatin, i.e., the concentration of gelatin in aqueous solution. […]

O=C(O)CN(CCN(CC(=O)O)CC(=O)O)CCN(CC(=O)O)CC(=O)O [DTPA, diethylenetriaminepentaacetic acid]
time to diffuse out of the gelatin coating: about 67 seconds

— US20070156042A1, “Medical device system and method for tracking and visualizing a medical device system under MR guidance” (priority 2005, published 2007)
